Measurements reported in patent US8835415B2, “Standardized composition, method of manufacture and use in the resolution of RNA virus infection” (priority 2009, dated 2014).

Tested on: H1N1 virus, Resistant strain (6706)
Assay: microbe, parasite or virus in culture
Type: cell-based
Conditions: Influenza A virus, H1N1, MDCK

CCOC(=O)C1=C[C@@H](OC(CC)CC)[C@H](NC(C)=O)[C@@H](N)C1 [Tamiflu, Oseltamivir]
EC50: > 5 µM
